According to US10533010B2, “Substituted indole Mcl-1 inhibitors” (Vanderbilt University, priority 2014, dated 2020):

biological target: recombinant Mcl-1 (residues 172-327) (Homo sapiens (Human), UniProt Q07820); experiment: Fluorescence polarization anisotropy competition assay (FITC-Bak or FITC-Bim BH3 peptide) with Mcl-1; format: binding; conditions: Table 2; Ki bins given in nM; FITC-Bak or FITC-Bim peptide competition; Ki converted from IC50; read-out: Ki for Inhibition of Mcl-1
Sequence (Q07820 172-327): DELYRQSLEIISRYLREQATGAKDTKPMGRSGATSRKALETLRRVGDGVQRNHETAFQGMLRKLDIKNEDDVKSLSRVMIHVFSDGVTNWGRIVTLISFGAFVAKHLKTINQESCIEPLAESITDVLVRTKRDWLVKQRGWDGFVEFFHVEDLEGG

SMILES | Ki [nM]
Cc1cc(OCCCc2c(C(=O)Nc3cccc(C#N)c3)[nH]c3c(-c4c(C)nn(C)c4C)c(Cl)ccc23)cc(C)c1Cl [I-352, 6-chloro-3-(3-(4-chloro-3,5-dimethylphenoxy)propyl)-N-(3-cyanophenyl)-7-(1,3,5-trimethyl-1H-pyrazol-4-yl)-1H-indole-2-carboxamide] | 51 to 100
Cc1cc(OCCCc2c(C(=O)NCc3cc(C(=O)O)cc(N4CCc5ccccc5C4)n3)[nH]c3c(-c4c(C)nn(C)c4C)c(Cl)ccc23)cc(C)c1Cl [I-282, 2-((6-chloro-3-(3-(4-chloro-3,5-dimethylphenoxy)propyl)-7-(1,3,5-trimethyl-1H-pyrazol-4-yl)-1H-indole-2-carboxamido)methyl)-6-(3,4-dihydroisoquinolin-2(1H)-yl)isonicotinic acid] | < 50
Cc1cc(OCCCc2c3n(c4c(-c5c(C)nn(C)c5C)c(Cl)ccc24)CCCN(Cc2ccc(C(=O)O)cn2)C3=O)cc(C)c1Cl [I-102, 6-((8-chloro-11-(3-(4-chloro-3,5-dimethylphenoxy)propyl)-1-oxo-7-(1,3,5-trimethyl-1H-pyrazol-4-yl)-4,5-dihydro-1H-[1,4]diazepino[1,2-a]indol-2(3H)-yl)methyl)nicotinic acid] | < 50
Cc1cc(OCCCc2c3n(c4c(-c5c(C)nn(C)c5C)c(Cl)ccc24)CCCN(c2cc(C(=O)O)cc4c2OCCO4)C3=O)cc(C)c1Cl [I-364, 8-(8-chloro-11-(3-(4-chloro-3,5-dimethylphenoxy)propyl)-1-oxo-7-(1,3,5-trimethyl-1H-pyrazol-4-yl)-4,5-dihydro-1H-[1,4]diazepino[1,2-a]indol-2(3H)-yl)-2,3-dihydrobenzo[b][1,4]dioxine-6-carboxylic acid] | < 50
Cc1cc(OCCCc2c3n(c4c(-c5c(C)nn(C)c5C)c(Cl)ccc24)CCN(c2ccc(C(=O)O)c4ncccc24)C3=O)cc(C)c1Cl [I-161, 5-(7-chloro-10-(3-(4-chloro-3,5-dimethylphenoxy)propyl)-1-oxo-6-(1,3,5-trimethyl-1H-pyrazol-4-yl)-3,4-dihydropyrazino[1,2-a]indol-2(1H)-yl)quinoline-8-carboxylic acid] | < 50
Cc1cc(OCCCc2c3n(c4c(-c5c(C)nn(C)c5C)c(Cl)ccc24)CCCN(c2nn(C)c4cc(C(=O)O)ccc24)C3=O)cc(C)c1Cl [I-375, 3-(8-chloro-11-(3-(4-chloro-3,5-dimethylphenoxy)propyl)-1-oxo-7-(1,3,5-trimethyl-1H-pyrazol-4-yl)-4,5-dihydro-1H-[1,4]diazepino[1,2-a]indol-2(3H)-yl)-1-methyl-1H-indazole-6-carboxylic acid] | < 50
Cc1cc(OCCCc2c(C(=O)NCc3ccc(N4CCCCC4)c(C(=O)O)c3)[nH]c3c(-c4c(C)nn(C)c4C)cccc23)cc(C)c1Cl [I-73, 5-((3-(3-(4-chloro-3,5-dimethylphenoxy)propyl)-7-(1,3,5-trimethyl-1H-pyrazol-4-yl)-1H-indole-2-carboxamido)methyl)-2-(piperidin-1-yl)benzoic acid] | 301 to 500
Cc1cc(OCCCc2c3n(c4c(-c5c(C)nn(C)c5C)c(Cl)ccc24)CCCN(c2cccc(OC(F)(F)F)c2)C3=O)cc(C)c1Cl [I-101, 8-chloro-11-(3-(4-chloro-3,5-dimethylphenoxy)propyl)-2-(3-(trifluoromethoxy)phenyl)-7-(1,3,5-trimethyl-1H-pyrazol-4-yl)-2,3,4,5-tetrahydro-1H-[1,4]diazepino[1,2-a]indol-1-one] | 301 to 500
Cc1cc(OCCCc2c(C(=O)NCc3ccc(C(=O)NS(C)(=O)=O)o3)[nH]c3ccccc23)cc(C)c1Cl [I-59, 3-(3-(4-chloro-3,5-dimethylphenoxy)propyl)-N-((5-((methylsulfonyl)carbamoyl)furan-2-yl)methyl)-1H-indole-2-carboxamide] | 101 to 299
Cc1cc(OCCCc2c(C(=O)N[C@H]3CCN(C(=O)C(=O)O)C3)[nH]c3c(-c4c(C)nn(C)c4C)c(Cl)ccc23)cc(C)c1Cl [I-325, (S)-2-(3-(6-chloro-3-(3-(4-chloro-3,5-dimethylphenoxy)propyl)-7-(1,3,5-trimethyl-1H-pyrazol-4-yl)-1H-indole-2-carboxamido)pyrrolidin-1-yl)-2-oxoacetic acid] | < 50
Cc1cc(OCCCc2c(C(=O)N3CCc4c(C(=O)O)cccc43)[nH]c3c(-c4c(C)nn(C)c4C)cccc23)cc(C)c1Cl [I-202, 1-(3-(3-(4-chloro-3,5-dimethylphenoxy)propyl)-7-(1,3,5-trimethyl-1H-pyrazol-4-yl)-1H-indole-2-carbonyl)indoline-4-carboxylic acid] | 51 to 100
Cc1cc(OCCCc2c(C(=O)NCCC(=O)O)[nH]c3c(-c4c(C)n[nH]c4C)cccc23)cc(C)c1Cl [I-23, 3-(3-(3-(4-chloro-3,5-dimethylphenoxy)propyl)-7-(3,5-dimethyl-1H-pyrazol-4-yl)-1H-indole-2-carboxamido)propanoic acid] | < 50
Cc1cc(OCCCc2c3n(c4c(-c5c(C)nn(C)c5C)c(Cl)ccc24)CCCN(Cc2cc(COc4ccccc4C(F)(F)F)cc(C(=O)O)c2)C3=O)cc(C)c1Cl [I-312, 3-((8-chloro-11-(3-(4-chloro-3,5-dimethylphenoxy)propyl)-1-oxo-7-(1,3,5-trimethyl-1H-pyrazol-4-yl)-4,5-dihydro-1H-[1,4]diazepino[1,2-a]indol-2(3H)-yl)methyl)-5-((2-(trifluoromethyl)phenoxy)methyl)benzoic acid] | 51 to 100
Cc1cc(OCCCc2c(C(=O)NC3CCN(C(=O)C(=O)O)CC3)[nH]c3c(-c4c(C)nn(C)c4C)cccc23)cc(C)c1Cl [I-319, 2-(4-(3-(3-(4-chloro-3,5-dimethylphenoxy)propyl)-7-(1,3,5-trimethyl-1H-pyrazol-4-yl)-1H-indole-2-carboxamido)piperidin-1-yl)-2-oxoacetic acid] | < 50
Cc1cc(OCCCc2c(C(=O)NCc3ccc(C(=O)O)o3)n(C)c3c(-c4c(C)nn(C)c4C)cccc23)cc(C)c1Cl [I-66, 5-((3-(3-(4-chloro-3,5-dimethylphenoxy)propyl)-1-methyl-7-(1,3,5-trimethyl-1H-pyrazol-4-yl)-1H-indole-2-carboxamido)methyl)furan-2-carboxylic acid] | < 50

Continued, values first:

Ki [nM] | SMILES
< 50 | Cc1cc(OCCCc2c3n(c4c(-c5c(C)nn(C)c5C)c(Cl)ccc24)CCCN(c2cc(F)cc(C(=O)O)c2)C3=O)cc(C)c1Cl [I-223, 3-(8-chloro-11-(3-(4-chloro-3,5-dimethylphenoxy)propyl)-1-oxo-7-(1,3,5-trimethyl-1H-pyrazol-4-yl)-4,5-dihydro-1H-[1,4]diazepino[1,2-a]indol-2(3H)-yl)-5-fluorobenzoic acid]
< 50 | Cc1cc(OCCCc2c3n(c4c(-c5c(C)nn(C)c5C)c(Cl)ccc24)C[C@@H](C)N(Cc2cccc(C(=O)O)c2)C3=O)cc(C)c1Cl [I-121, (R)-3-((7-chloro-10-(3-(4-chloro-3,5-dimethylphenoxy)propyl)-3-methyl-1-oxo-6-(1,3,5-trimethyl-1H-pyrazol-4-yl)-3,4-dihydropyrazino[1,2-a]indol-2(1H)-yl)methyl)benzoic acid]
< 50 | Cc1cc(OCCCc2c3n(c4c(-c5c(C)nn(C)c5C)c(Cl)ccc24)CCCN(c2cc(C(=O)O)cc(C(F)(F)F)c2)C3=O)cc(C)c1Cl [I-222, 3-(8-chloro-11-(3-(4-chloro-3,5-dimethylphenoxy)propyl)-1-oxo-7-(1,3,5-trimethyl-1H-pyrazol-4-yl)-4,5-dihydro-1H-[1,4]diazepino[1,2-a]indol-2(3H)-yl)-5-(trifluoromethyl)benzoic acid]
< 50 | Cc1cc(OCCCc2c(C(=O)NCc3cccc(C(=O)NS(=O)(=O)c4ccccc4C#N)c3)[nH]c3c(-c4c(C)n[nH]c4C)cccc23)cc(C)c1Cl [I-26, 3-(3-(4-chloro-3,5-dimethylphenoxy)propyl)-N-(3-(((2-cyanophenyl)sulfonyl)carbamoyl)benzyl)-7-(3,5-dimethyl-1H-pyrazol-4-yl)-1H-indole-2-carboxamide]
< 50 | Cc1ccc(C(=O)O)cc1N1CCCn2c(c(CCCOc3cc(C)c(Cl)c(C)c3)c3ccc(Cl)c(-c4c(C)nn(C)c4C)c32)C1=O [I-100, 3-(8-chloro-11-(3-(4-chloro-3,5-dimethylphenoxy)propyl)-1-oxo-7-(1,3,5-trimethyl-1H-pyrazol-4-yl)-4,5-dihydro-1H-[1,4]diazepino[1,2-a]indol-2(3H)-yl)-4-methylbenzoic acid]
< 50 | Cc1cc(OCCCc2c3n(c4c(-c5c(C)nn(C)c5C)c(Cl)ccc24)C[C@@H](C)NC3=O)cc(C)c1Cl [I-109, (R)-7-chloro-10-(3-(4-chloro-3,5-dimethylphenoxy)propyl)-3-methyl-6-(1,3,5-trimethyl-1H-pyrazol-4-yl)-3,4-dihydropyrazino[1,2-a]indol-1(2H)-one]
< 50 | Cc1cc(OCCCc2c3n(c4c(-c5c(C)nn(C)c5C)cccc24)CCN(Cc2cccc(-c4nnn[nH]4)c2)C3=O)cc(C)c1Cl [I-85, 2-(3-(1H-tetrazol-5-yl)benzyl)-10-(3-(4-chloro-3,5-dimethylphenoxy)propyl)-6-(1,3,5-trimethyl-1H-pyrazol-4-yl)-3,4-dihydropyrazino[1,2-a]indol-1(2H)-one]
< 50 | Cc1cc(OCCCc2c3n(c4c(-c5c(C)nn(C)c5C)c(Cl)ccc24)CCCN(c2cc(C(=O)O)cc(Cl)n2)C3=O)cc(C)c1Cl [I-230, 2-chloro-6-(8-chloro-11-(3-(4-chloro-3,5-dimethylphenoxy)propyl)-1-oxo-7-(1,3,5-trimethyl-1H-pyrazol-4-yl)-4,5-dihydro-1H-[1,4]diazepino[1,2-a]indol-2(3H)-yl)isonicotinic acid]

same assay, conditions: Table 2; Ki bins given in μM; FITC-Bak or FITC-Bim peptide competition; Ki converted from IC50; read-out: Ki for Inhibition of Mcl-1

SMILES | Ki [nM]
CCOC(=O)c1ccc(CNC(=O)c2[nH]c3c(-c4c(C)nn(C)c4C)cccc3c2CCCOc2cc(C)c(Cl)c(C)c2)o1 [I-266, ethyl 5-((3-(3-(4-chloro-3,5-dimethylphenoxy)propyl)-7-(1,3,5-trimethyl-1H-pyrazol-4-yl)-1H-indole-2-carboxamido)methyl)furan-2-carboxylate] | 10000 to 50000
Cc1cc(OCCCc2c(C(=O)NCc3ccc(Oc4ccccc4)cc3)[nH]c3ccccc23)cc(C)c1Cl [I-45, 3-(3-(4-chloro-3,5-dimethylphenoxy)propyl)-N-(4-phenoxybenzyl)-1H-indole-2-carboxamide] | 10000 to 50000
Cc1cc(OCCCc2c(C(=O)NCc3ccc(C(=O)O)o3)n(C)c3c(-c4c(C)nn(C)c4C)cccc23)cc(C)c1Cl [I-66, 5-((3-(3-(4-chloro-3,5-dimethylphenoxy)propyl)-1-methyl-7-(1,3,5-trimethyl-1H-pyrazol-4-yl)-1H-indole-2-carboxamido)methyl)furan-2-carboxylic acid] | 10000 to 50000
